Results from patent publication US20250090510A1, “eIF4G1-eIF1 INHIBITORS AND USE THEREOF” (YEDA RESEARCH AND DEVELOPMENT CO. LTD., priority 2022, published 2025).

Test system: leaky scanning from cap-proximal AUG in HEK293T cells
Assay: Leaky scanning GFP reporter with cap-proximal upstream AUG, western blot
Assay type: cell-based, human
Details: upstream AUG with 16 nt 5′UTR
Source text: FIGS. 1A-G: Identification and initial characterization of eIF1-eIF4G1 inhibitors using a high-throughput drug screen (HTS). (1A) A flowchart describing the steps of the recombinant eIF1-eIF4G1 split-RL HTS. (1B) Selection of drugs that inhibit leaky scanning. HEK293T cells were transfected with a short 5′UTR bearing GFP reporter gene described on the top, treated with the indicated HTS hits, and then analyzed by western blot with GFP antibody. US and DS denote upstream and downstream AUG initiation sites, respectively. (1C) A graph showing the change in the ratio of the upstream and downstream AUG following treatment with the indicated drugs. (1D) The chemical structure of the eIF1-eIF4G1 inhibitors, i14G1-10 and i14G1-12. (1E) His-tagged eIF4G1 and His-tagged eIF1 were expressed in BL21 bacteria and purified using nickel NTA beads. Purified His-tagged eIF4G1 and His-tagged eIF1 were incubated with the indicated doses of either i14G1-10 (0-256 μM) or i14G1-12 (0-256 μM) for 5 minutes, followed by fluorescence measurement. For eIF4G1 excitation was at 280 nm and emission was at 350 nm. For eIF1 excitation was at 274 nm and emission was at 304 nm. The data shown represent three independent replicates. IC50 was calculated using Graphpad prism 9. (1F-1G) Western blots of GST pull down. […]
To address the functional significance of the temporal eIF1-eIF4G1 interaction, the inventors set out to develop pharmacological tools against this complex. To this end, the split-Renilla luciferase (RL) complementation assay previously found to be an efficient readout of eIF1 and eIF4G1 interaction in mammalian cells and a highly sensitive and powerful approach for the identification of protein-protein inhibitors was used. […] As knockdown of either eIF1 or eIF4G1 and interference with eIF1-eIF4G1 interaction led to the arrest of leaky scanning from cap-proximal AUG, the selected compounds were analyzed for their effect on initiation from cap-proximal AUG. […]

SMILES	upstream to downstream AUG ratio (leaky scanning)
O=C(/C=C/Sc1ccc(C(F)(F)F)cn1)c1ccccc1 [i14G1-10]	selectively changed the upstream to downstream ratio by inhibiting leaky scanning from the cap-proximal AUG
Cn1ccnc1S/C(=C/C=C(C#N)C#N)c1ccc(Cl)cc1 [i14G1-12]	selectively changed the upstream to downstream ratio by inhibiting leaky scanning from the cap-proximal AUG
